Measurements taken from patent US10933053B2, “Treating infections with ceftolozane/tazobactam in subjects having impaired renal function” (MERCK SHARP & DOHME CORP., priority 2013, dated 2021).
Marks after values point to notes of the source that are not given here. Values belong to the compound of their own block, whether it stands above or below them.

Tests used:
[1] = clinical; details: human, in vivo, 750 mg
Experimental: (§1) This was a Phase 1, multicenter, prospective, open-label study of 750 mg ceftolozane/tazobactam (as CXA-201) administered IV in male and female adult subjects with severe renal impairment (estimated CLCR<30 mL/min) and subjects with end-stage renal disease (ESRD) on hemodialysis (HD). The primary objective of the study was to determine the PK profile of ceftolozane/tazobactam in subjects with severe renal impairment and subjects with ESRD on HD and to determine the effect of HD on the clearance of ceftolozane/tazobactam.
(§2) Subjects with severe renal impairment received a single IV 1-hour infusion of 750 mg ceftolozane/tazobactam on Day 1. […] Subjects in this cohort received an IV dose of 750 mg ceftolozane/tazobactam as a 1 hour infusion immediately after their first HD session on Day 1 (post dialysis, approximately 72 hours prior to the next HD session) and a second dose of ceftolozane/tazobactam approximately 2 hours before their second HD session on Day 4 of the study. Infusion of ceftolozane/tazobactam was completed approximately 1 hour before the start of HD.
(§3) Subjects in both cohorts had urine (if not anuric) and plasma samples collected for determination of levels of ceftolozane, tazobactam and the M1 metabolite of tazobactam; subjects in the ESRD on HD cohort also had dialysate fluid samples collected for PK assessment. Plasma, urine, and dialysate levels of ceftolozane, tazobactam, and its metabolite M1 collected over a prespecified interval were determined by LC/MS/MS assay.

[2] = clinical; details: human, in vivo
Experimental: as §1, §2, §3
All subjects underwent hemodialysis for 3 to 4 hours using a high-flux membrane (either 1.4, 1.8, or 1.9 m^2) on Days 1, 4, and 6 as scheduled. Average blood flow rate was 264 to 600 mL/min and average dialysis flow rate was either 600 or 800 mL/min for all subjects with ESRD.
All cohorts received ceftolozane/tazobactam as an intravenous infusion over 1 h. The normal, mild, and moderate renal impairment cohorts received a single dose of ceftolozane/tazobactam 1,000 mg/500 mg; the severe renal impairment cohort received a single dose of ceftolozane/tazobactam 500 mg/250 mg; the ESRD cohort received a dose of ceftolozane/tazobactam 500 mg/250 mg initiated at the end of HD on day 1 and another dose initiated 2 h before HD on day 4. Subjects with ESRD underwent HD for 3 to 4 h using a high-flux membrane as scheduled; average dialysis flow rate was 600 to 800 ml/min. Revaclear hemodialyzers (Gambro, Stockholm, Sweden) were used in 5 subjects (ultrafiltration coefficient 50 to 60 ml/h/mmHg, high flux membrane of 1.4 to 1.8 m^2) and a CT 190G hemodialyzers (Baxter Healthcare, McGaw Park, Ill.) was used in 1 subject (ultrafiltration coefficient 36 ml/h/mmHg, high flux membrane of 1.9 m^2). The average blood flow rate was 400 to 600 ml/min with the exception of one subject with rates between 264 and 400 ml/min.
Plasma concentrations of ceftolozane and tazobactam were measured prior to, during, and following administration of ceftolozane/tazobactam. Blood samples were collected 30 min prior to administration, at the end of administration and at 5, 15, and 30 min and 1, 2, 3, 5, 7, 9, 11, 15, 25, and 35 h after completion of ceftolozane/tazobactam administration in the normal, mild, and moderate renal impairment cohorts. Severe renal impairment and ESRD cohorts off HD had samples taken 30 min prior to administration and at 0.5, 1, 1.5, 2, 3, 6, 9, 12, 24, 36, and 48 h after the start of administration. On the day of and following HD, the subjects with ESRD had samples taken 30 min prior to administration and at 0.5, 1, 1.5, 2, 3, 4, 5, 6, 9, 12, 24, 36, and 44 h after the start of the administration. The entire dialysate was collected at each of the following intervals: 0 to 1, 1 to 2, 2 to 3, and 3 h to the end of dialysis. Urine for PK analysis was obtained in the normal, mild, and moderate cohorts at 0 to 2, 2 to 4, 4 to 8, 8 to 12, 12 to 24, and 24 to 36 h after the start of ceftolozane/tazobactam administration.

[3] = clinical; details: human, in vivo; remark: listed apart in the source
Experimental: This TQT study was a single-center, prospective, randomized, double-blind, double-dummy, placebo and active controlled, 4-way crossover study that evaluated a single therapeutic 1.5 g and a single supratherapeutic 4.5 g dose of ceftolozane/tazobactam compared with placebo. Moxifloxacin 400 mg, given orally, was used as a positive control. All subjects received study drug on 4 dosing days (Day 1, Day 5, Day 9, and Day 13) in a crossover fashion with a 3-day wash-out period between doses. Healthy men and women were randomized on a 1:1:1:1 basis to 1 of 4 dosing sequences.
Electrocardiograms were recorded (triplicate measurements) over 24 hours on Day 1, Day 5, Day 9, and Day 13 using a 12-lead Holter monitor. Blood samples for determination of ceftolozane, tazobactam, and the M1 metabolite of tazobactam levels were obtained at prespecified time intervals prior to and following each electrocardiogram (ECG) reading on dosing days. Plasma levels of ceftolozane, tazobactam, and its metabolite M1 were determined by LC/MS/MS assay.

[4] = clinical; details: human, in vivo; remark: listed apart in the source
Experimental: The extent of ceftolozane exposure increases with decreasing renal function. […] In subjects with moderate renal impairment, exposure approximately doubles relative to that in subjects with normal renal function.
For tazobactam, this estimated exposure from a dose of 125 mg in subjects with severe renal impairment not on hemodialysis is similar to that achieved with 500 mg tazobactam in subjects with normal renal function (23.8 μg·h/mL).

[5] = tested on: QT/QTc interval; format: in vivo, human; details: 400 mg orally, positive control
Excerpt: The primary objectives of the study were to evaluate the effect of a single IV supratherapeutic dose of ceftolozane/tazobactam on ventricular repolarization as measured by QTc interval in healthy subjects compared to baseline-adjusted, time-matched placebo and to evaluate the change from the period-specific predose baseline of QT/QTc interval corrected by QTcI (individual QT correction subject-specific formula) across all dose groups.

[6] = clinical; details: human, in vivo; remark: listed apart in the source
Excerpt: The most common adverse reactions (≥5% in either indication) occurring in patients receiving CXA-201 were nausea, headache and diarrhea. Table 3 lists adverse reactions occurring in ≥1.0% of patients receiving CXA-201 in Phase 3 clinical trials.
The majority of adverse events were mild to moderate in severity, and the incidence of treatment-limiting adverse events was <2% in both treatment groups. Epidemiology and susceptibility of organisms isolated from patients with cUTI.

[7] = tested on: baseline intra-abdominal pathogens (complicated intra-abdominal infections); assay: Phase 3 study of complicated intra-abdominal infections: clinical cure at test-of-cure; format: in vivo, human; details: ME population
Experimental: A total of 979 adults hospitalized with complicated intra-abdominal infections were randomized and received study medications in a multinational, double-blind study comparing CXA-201 (1.5 g IV every 8 hours) plus metronidazole (500 mg IV every 8 hours) to meropenem (1 g IV every 8 hours) for 4 to 14 days of therapy. Complicated intra-abdominal infections included appendicitis, cholecystitis, diverticulitis, gastric/duodenal perforation, perforation of the intestine, and other causes of intra-abdominal abscesses and peritonitis. The primary efficacy endpoint was clinical response at the test-of-cure (TOC) visit in the microbiological intent-to-treat (MITT) population, which included all patients who had at least 1 baseline intra-abdominal pathogen. The key secondary efficacy endpoint was clinical response at the TOC visit in the microbiologically evaluable (ME) population, which included all protocol-adherent MITT patients.

[8] = tested on: baseline uropathogens (complicated urinary tract infections); assay: Phase 3 study of complicated urinary tract infections incl. pyelonephritis: composite cure / microbiological eradication at test-of-cure; format: in vivo, human; details: mMITT; patients with concurrent bacteremia
Excerpt: The primary efficacy endpoint was the composite microbiological and clinical cure response at the test-of-cure (TOC) visit in the microbiologically modified intent-to-treat (mMITT) population, which included all patients who received study medication and had at least 1 baseline uropathogen. The key secondary efficacy endpoint was the composite microbiological and clinical cure response at the TOC visit in the microbiologically evaluable (ME) population, which included protocol-adherent mMITT patients with a urine culture at the TOC visit.

[9] = tested on: Gram-negative aerobic organisms isolated from patients with cUTI; assay: Susceptibility testing of baseline cUTI isolates, CLSI broth microdilution (tazobactam fixed 4 μg/mL); format: cell-based; details: mMITT; ceftolozane/tazobactam breakpoint ≤8 mg/1, levofloxacin CLSI criteria
Experimental: 764 isolates of Gram-negative aerobic organisms were isolated from 800 patients in the microbiological modified intent-to-treat population (enrolled in 20 countries in Eastern Europe, North America, South America and 5 countries outside of these regions). Susceptibility (S) testing was performed with ceftolozane/tazobactam at a fixed 4 μg/mL of tazobactam and 10 antibiotic comparators using CLSI broth microdilution methods. ESBL enzymes were identified by PCR.

AUClast, mean (CV %) [1]: 53.7 (25) μg · h/mL
AUC∞, mean (CV %) [1]: 60.3 (30) μg · h/mL
AUC0-∞ [2]: 31.0 (23.4-34.9) μg * hr/mL
AUC48h Ratio (Day 3:1), median (range) [2]: 0.49 (0.38-0.78)
AUC(0-t) [2]: 26.8 (3.77-32.0) μg * hr/mL
AUCt0-t1, median (range) [2]: 27.5 (3.8-32.7) μg * hr/mL
Change in Concentration [2]: 9.1 (0.5-14.5)
Clast [2]: 0.41 (0.26-1.11) μg/mL
Clast lower than Cmax [2]: ~26 fold
Cmax [2]: 10.9 (1.26-15.7) μg/mL
Concentration after HD [2]: 0.4 (0.3-1.1) μg/mL
Concentration before HD [2]: 9.4 (1.4-14.9) μg/mL
Half-Life, median (range) [2]: 368.4^a hr
Percent Removed [2]: 93.4 (38.1-97.7) %
Percent Removed, median (range) [2]: 51 (22-63)
Tmax [2]: 1.50 (0.50-1.50) hr
half-life [2]: 1.80 (0.68-2.38) hr
median RDHD (percent reduction in plasma concentration during HD) [2]: 93%
median dialysis clearance (CLD) [2]: 4.59 L/h
removed by dialysis [2]: ~51%
t1/2 during the HD period (median) [2]: 1.80 h
Median tmax [3]: 3.7 h
t1/2, geometric mean [4]: 6.67 h
SMILES: C[C@](Cn1ccnn1)([C@@H](N)C(=O)O)S(=O)O [M1 Metabolite]

SMILES: COc1c(N2C[C@@H]3CCCN[C@@H]3C2)c(F)cc2c(=O)c(C(=O)O)cn(C3CC3)c12 [moxifloxacin]
95% lower confidence bound on difference from baseline for QTcI vs placebo [5]: above 5 ms

Abdominal pain [6]: 2 (0.4)
Constipation [6]: 6 (1.2)
Diarrhea [6]: 25 (5.0)
Headache [6]: 9 (1.8)
Nausea [6]: 29 (5.8)
Vomiting [6]: 20 (4.0)
SMILES: C[C@@H](O)[C@H]1C(=O)N2C(C(=O)O)=C(S[C@@H]3CN[C@H](C(=O)N(C)C)C3)[C@H](C)[C@H]12 [Meropenem, meropenem]
ALT increased [6]: 5 (1.0)
AST increased [6]: 3 (0.6)
Per pathogen clinical cure rate ([7]; Aerobic Gram-negative): (93.8) %
Per pathogen clinical cure rate ([7]; Aerobic Gram-positive): (91.9) %
Per pathogen clinical cure rate ([7]; Anaerobic Gram-negative): (96.4) %
Per pathogen clinical cure rate ([7]; Bacteroides thetaiotaomicron): (93.0) %
Per pathogen clinical cure rate ([7]; Klebsiella pneumoniae (CTX-M-15 ESBL-producing)): (0) %

SMILES: C[C@H]1COc2c(N3CCN(C)CC3)c(F)cc3c(=O)c(C(=O)O)cn1c23 [Levofloxacin, levofloxacin]
ALT increased [6]: 5 (0.9)
AST increased [6]: 5 (0.9)
Abdominal pain [6]: 2 (0.4)
Adverse events occurred, patients [6]: 34.4%
Constipation [6]: 17 (3.2)
Diarrhea [6]: 23 (4.3)
Headache [6]: 26 (4.9)
Nausea [6]: 9 (1.7)
Vomiting [6]: 6 (1.1)
gastrointestinal symptoms [6]: 11.4%
headache [6]: 4.9%
incidence of treatment-limiting adverse events [6]: < 2%
composite cure rate [8]: 57.6%
gram-negative pathogens isolated at baseline that were susceptible [9]: 70.7%
